The results in this text go back to patent US10668090B2, “Liver specific delivery-based antiviral prodrug nucleoside cyclophosphate compound and uses thereof” (ZHEJIANG PALO ALTO PHARMACEUTICALS, INC, priority 2016, dated 2020).

The structures appear in SMILES notation. Structures can show the parent of a compound that is named as a salt. Where two headings read alike, the source gives them in different places.

Data set [1] is described as follows: Formation of active molecules by in vitro metabolism with human liver microsomes. It is filed as in vitro ADME. Particulars: 25 μM, pH 7.4. As to the method:
Human liver microsomes used herein were purchased from In Vitro Technologies (IVT) Inc., Batch No.: SSP X008070, a mixed liver microsome extracted from the liver tissues of 150 donors. The metabolic activity of CYP3A4 in the liver microsomes of this batch was recorded in the product description to be 1.734 nmol/mg/min (a rate of metabolizing testosterone into […]). The test compounds were synthesized by Zhejiang Paloalto Pharmaceutical Technology Co., Ltd., and dissolved in methanol to produce a 25 mM stock solution. The enzymatic reaction was carried out in 100 μL of a reaction solution (100 mM Tris-HCl, 5 mM MgCl2, pH 7.4) at a test compound concentration of 25 μM and a human liver microsome concentration of 2 mg/mL, and NADPH was added to start the reaction (with a final concentration of 2 mM). After the reaction was performed in a constant temperature shaking water bath for 5 minutes, acetonitrile was quickly added to terminate the reaction at 1.5 times the volume of the reaction mixture. The collected samples were centrifuged at a maximum speed of 13,600 rpm for 20 minutes using an Eppendorf table top centrifuge. The supernatant was collected and dried with a nitrogen evaporator, and then redissolved with mobile phase A, which was an aqueous solution containing 5 mM of ammonium acetate and 0.05% formic acid by volume. The resulting solution was subjected to quantitative analysis using LS-MS/MS (Waters, Acquity UPLC HSS T3 column).
A general note: Microsomes from liver hold many membrane-bound enzymes, among them those of drug oxidation.

How the values of data set [2] were obtained:
Male SD rats weighing 180-300 g were provided by Shanghai Sippr-BK Laboratory Animals Co., Ltd. Male animals were adapted to the environment for more than 3 days and fasted for 12 hours but without water deprivation at the night before the experiment. PA1010 (compound 4-cis), PA1007 (compound 6-cis), TAF and TDF were respectively dissolved in a normal saline to prepare their corresponding solutions. Before the administration, the animal's body weight was checked whether it met the experimental requirements. 12 rats were selected for grouping, 2 rats in each group, and were intragastrically administered with a drug solution at 30 mg/kg. Rats were euthanized with carbon dioxide gas at 0.5, 1, 3, 6, 12 and 24 h, respectively. Blood samples were collected from the heart and stored in a heparin anticoagulation tube. Then the samples were centrifuged at 4° C. and 6,000 rpm for 5 minutes, and the plasma supernatant was stored in ice. The kidney and liver tissues of the rats were collected and rinsed with normal saline pre-cooled at 4° C., and then stored in ice after water was drained. After the experiment, the samples were stored at −80° C. in a refrigerator.
The kidney and liver tissues were disrupted and mixed thoroughly in normal saline 5 times the volume of the kidney and liver tissues to obtain a tissue homogenate sample. 100 μL of the rat plasma or tissue homogenate sample was mixed uniformly with 100 μL of 10% trichloroacetic acid precipitant containing 50 ng/mL of adefovir (internal standard) and the solvent thereof was prepared by methanol and acetonitrile in a volume ratio of 50:50. The mixture was centrifuged at 4° C. and 6000 rpm for 5 minutes, and all supernatant was treated with a SPE microextraction plate (MCX μElution Plate 30 μm, Waters). Finally, the microextraction plate was eluted with a methanol solution containing 5% ammonia, and 75 μL of the obtained eluent was transferred to a 384-well sample plate for analysis with an injection volume of 1 μL.
LC-MS/MS-AJ (Triple Quad 5500, AB SCIEX) was used for sample analysis. The chromatographic conditions were shown as follows: chromatographic column: Acquity UPLC HSS T3 (2.1×50 mm, 1.8 μm); column temperature: 40° C.; flow rate: 0.5 mL/min; mobile phase A: 0.1% formic acid aqueous solution and mobile phase B: an acetonitrile solution. The mass spectrometry conditions corresponding to the internal standard were shown as follows: electrospray ionization (ESI): positive ion mode; ion pair m/z monitored by multiple reaction monitoring (MRM): 288/176 (PMPA), 274/162 (PMEA); capillary voltage: 3.0 kV; temperature: 500° C.; desolvation gas flow: 1000 L/h; scanning time: 0.025 seconds; and collision energy: 25 V.
Bar charts of the concentration of PMPA in plasma, liver and kidney corresponding to time were respectively plotted. The area (AUC0-t) under the tissue concentration-time curve of PMPA was fitted using the log-linear trapezoidal method in a non-compartmental model of WinNonLin 6.2.1 (Pharsight, CA). The ratios of liver to kidney and liver to plasma of PMPA were obtained by calculating the ratio of their corresponding AUC0-t.

The mark [3] stands for this setting: rats, intragastric 30 mg/kg, 0.5-24 h, kidney.
The mark [4] stands for this setting: rats, intragastric 30 mg/kg, 0.5-24 h.
[5] abbreviates: rats, intragastric 30 mg/kg, 0.5-24 h, plasma.
Setting [6] is: male, SD, rat, in vivo, po, 30 mg/kg.

For `C[C@H](Cn1cnc2c(N)ncnc21)OC[P@@]1(=O)OCC[C@@H](c2cc(F)cc(Cl)c2)O1` [Compound 6-cis, (2R)-9-{2-[(2R, 4S)-4-(3-chloro-5-fluorophenyl)-2-oxo-1,3,2-dioxaphosphorinan-2-yl]methoxypropyl}adenine], the “Average rate of PMPA production in 5 minutes” value (from here on “Average rate”) in data set [1] stood at 75.8 pmol/min/mg HLM. Also, the “exposure level of PMPA in the kidney compared with TAF and TDF” value in data set [2] (rats, intragastric 30 mg/kg) is “significantly lower”. Further, the “Exposure (AUC0-t) of the active molecule PMPA in kidney” value (shortened to “Exposure (AUC0-t) … in kidney”) in data set [2] (setting [3]) stood at 65393 ng·h/g. For the same compound, in data set [2] (setting [4]), the “Exposure (AUC0-t) of the active molecule PMPA in liver” value (“Exposure (AUC0-t) … in liver” below) came out at 76075 ng·h/g. Moreover, the “Exposure (AUC0-t) of the active molecule PMPA in plasma” value (“Exposure (AUC0-t) … in plasma” below) in data set [2] (setting [5]) came out at 1272 ng·h/g.

On to `C[C@H](Cn1cnc2c(N)ncnc21)OCP1(=O)OCC[C@@H](c2ccc(F)c(Cl)c2)O1` (mixture of isomers) [Compound 3, (2R)-9-{2-[(4S)-4-(3-chloro-4-fluorophenyl)-2-oxo-1,3,2-dioxaphosphorinan-2-yl]methoxypropyl}adenine], for which the “Average rate” value in data set [1] is reported as 22.2 pmol/min/mg HLM.

Consider `C[C@H](Cn1cnc2c(N)ncnc21)OCP1(=O)OCC[C@@H](c2cc(F)cc(Cl)c2)O1` (mixture of isomers) [Compound 2, (2R)-9-{2-[(4S)-4-(3-chloro-5-fluorophenyl)-2-oxo-1,3,2-dioxaphosphorinan-2-yl]methoxypropyl}adenine], for which the “Average rate” value in data set [1] came to 46.8 pmol/min/mg HLM.

Take `C[C@H](Cn1cnc2c(N)ncnc21)OC[P@@]1(=O)OCC[C@@H](c2cc(Cl)ccc2F)O1` [Compound 4-cis, (2R)-9-{2-[(2R, 4S)-4-(5-chloro-2-fluorophenyl)-2-oxo-1,3,2-dioxaphosphorinan-2-yl]methoxypropyl}adenine]: in data set [2] (male, SD, rat, in vivo), the “exposure level of PMPA in the liver, times that released from TAF” value came to 1.5 times and the “exposure level of PMPA in the liver, times that released from TDF” value came to 2.9 times. In data set [2] (setting [6]), the “Liver-kidney Ratio of PMPA AUC0-t” value worked out at 1.0 and the “Liver-plasma Ratio of PMPA AUC0-t” value is reported as 51.4. Also, in data set [2] (rat, in vivo), the “PMPA level in liver tissues compared with TAF and TDF at the corresponding time points” value is “significantly higher”; the “exposure level of PMPA in the kidney compared with TAF and TDF” value is “significantly lower”. Besides, in data set [2] (rat, in vivo, po, 30 mg/kg), the “Exposure (AUC0-t) … in kidney” value was 234298 ng·h/g and the “Exposure (AUC0-t) … in plasma” value is 4332 ng·h/g.

As for `CC(C)OC(=O)[C@H](C)N[P@](=O)(CO[C@H](C)Cn1cnc2c(N)ncnc21)Oc1ccccc1` [TAF, tenofovir alafenamide, reference compound], the “Exposure (AUC0-t) … in kidney” value in data set [2] (setting [3]) came to 297233 ng·h/g. In addition, the “Exposure (AUC0-t) … in liver” value in data set [2] (setting [4]) came out at 148407 ng·h/g. Further, in data set [2] (setting [5]), the “Exposure (AUC0-t) … in plasma” value turned out to be 4892 ng·h/g.

Consider `C[C@H](Cn1cnc2c(N)ncnc21)OCP1(=O)OCC[C@@H](c2cccc(Cl)c2)O1` (mixture of isomers) [Compound 7, (2R)-9-{2-[(4S)-4-(3-chlorophenyl)-2-oxo-1,3,2-dioxaphosphorinan-2-yl]methoxypropyl}adenine, reference compound], for which the “Average rate” value in data set [1] stood at 27.5 pmol/min/mg HLM.

On to `C[C@H](Cn1cnc2c(N)ncnc21)OCP1(=O)OCC[C@@H](c2cccc(Cl)c2F)O1` (mixture of isomers) [Compound 1, (2R)-9-{2-[(4S)-4-(3-chloro-2-fluorophenyl)-2-oxo-1,3,2-dioxaphosphorinan-2-yl]methoxypropyl}adenine], for which the “Average rate” value in data set [1] is recorded as 33.8 pmol/min/mg HLM.

Take `CC(C)OC(=O)OCOP(=O)(CO[C@H](C)Cn1cnc2c(N)ncnc21)OCOC(=O)OC(C)C` [TDF, tenofovir disoproxil fumarate, reference compound]: in data set [2] (setting [3]), the “Exposure (AUC0-t) … in kidney” value turned out to be 319562 ng·h/g. In data set [2] (setting [4]), the “Exposure (AUC0-t) … in liver” value turned out to be 78050 ng·h/g. Also, the “Exposure (AUC0-t) … in plasma” value in data set [2] (setting [5]) came to 3097 ng·h/g.
